Patent US9303088B2, “Detecting and treating breast cancer resistance to EGFR inhibitors” (The Regents of the University of California, priority 2009, dated 2016)

Experiments:
[1] = test system: HMT3522 T4-2 cells; test: Phenotypic reversion of malignant T4-2 cells cultured in 3D lrECM with signaling inhibitors; format: cell-based, human; conditions: for induction of phenotypically normal acinus-like structures: T4-2 cells in 3D lrECM; for phenotypic reversion of control T4-2 cells: vector control T4-2 cells (FIG. 17C)
Source text: The retroviral cDNA library from malignant T4-2 cells was re-introduced into T4-2 cells. Retrovirus transduced T4-2 cells were subsequently grown on 3D1rECM with one of the small molecule inhibitors, AG1478 (EGFR inhibitor), PD98059 (mitogen-activated protein kinase inhibitor), or LY294002 (PI3K inhibitor), […] […] After the second round of screening, the cDNA inserts were recovered from genomic DNA by PCR using primers to the flanking sequences of the retroviral cloning vector. Genomic DNA was isolated from selected clones grown on the monolayer.
Microscopic visual fields of FIG. 3 show non-malignant HMT3522 S1 cells form polarized acinar structures (FIG. 3A) resembling normally differentiated acinus in vivo, whereas malignant T4-2 cells form disorganized colonies constantly growing on 3D 1rECM (FIG. 3B).
(§1) FIG. 4B is a western blot of extracted cell lysates blotted with antibodies against EGFR, β-integrin, phosphorylated EGFR, and E-cadherin, which was used as a loading control.

[2] = test system: FAM83A overexpressing T4-2 cells; test: Phenotypic reversion of FAM83A-overexpressing T4-2 cells in 3D lrECM with inhibitors; format: cell-based, human; conditions: for phenotypic reversion of full-length FAM83A overexpressing T4-2 cells: 3D lrECM (FIG. 5B)
[3] = test system: FAM83A-overexpressing T4-2 cells; test: Lapatinib treatment of FAM83A-overexpressing T4-2 xenografts in mice; format: in vivo, BALB/c-nude mice
Description: (§2) Animal experiments were performed under federal guidelines and approved by Institutional Animal Welfare and Research Committee at LBN. Exponentially growing T4-2 cells or MDA-MB-468 cells were suspended at the density of 5×10^6 or 10×10^6, respectively, in 100 μl medium containing DMEM/F12 medium (50%) and Matrigel (50%). Cell suspension was subcutaneously injected into the rear flank of 6-8 wk old athymic female BALB/c-nude mice (nu/nu) (Charles River Laboratories) (n=8 per group). Tumor volumes were measured every other day. ANOVA 2-way analysis with Bonferroni post test was used to determine p-value. At the end of experiments, mice were sacrificed and subjected to pathological examinations.
(§3) The ability of FAM83A to confer cancer cell resistance to EGFR inhibitor in vivo was determined Vector control or FAM83A-overexpressing T4-2 cells were xenografted into mice, which were orally administered lapatinib by oral gavage at 30 mg/kg or 100 mg/kg twice daily for 3 weeks. […] Then, mice were randomized into vehicle (0.5% hydroxypropylmethylcellulose with 0.1% Tween 80 in water; n=8) and experimental treatment groups (n=8) to receive oral gavage of lapatinib at 30 mg/kg or 100 mg/kg twice daily for 3 weeks.

[4] = test system: Vector control T4-2 cells; test: Lapatinib treatment of vector control T4-2 xenografts in mice; format: in vivo, BALB/c-nude mice
Description: as §2, §3

[5] = test system: EGFR; test: Western blot of EGFR, phosphorylated EGFR and β1-integrin in AG1478-treated T4-2 cells; format: cell-based, human; conditions: 3D lrECM, western blot (FIG. 4B)
Source text: as §1

[6] = test system: FAM83A; test: RT-PCR and western blot of endogenous FAM83A in AG1478-treated T4-2 cells; format: cell-based, human
Description: The expression level of endogenous FA[…] in non-reverted and reverted T4-2 cells was analyzed by RT-PCR and western blot with antibody against endogenous FA[…]. […] RNA levels in T4-2 cells cultured in both 2D monolayer and 3D 1rECM treated with AG1478 or vehicle control DMSO for 4 days. FIG. 7B is a bar graph quantification of the results from FIG. 7A. […] RNA levels in S1 cells growing in 2D or 3D cultures. FIG. 7C is a western blot comparison of FA[…] protein levels in S1 and T4-2 cells growing in 2D or 3D cultures in the presence or absence of AG1478.

[7] = test system: MDA-MB468 cells; test: Xenograft growth of FAM83A shRNA-treated MDA-MB468 cells in nude mice; format: in vivo, BALB/c-nude mice; conditions: fraction of the control cells (FIG. 17B)
Description: as §2
To confirm this observation for cells with stable FAM83A-depletion and a different genetic background, control or FAM83A shRNA-treated MDA-MB468 cells were subcutaneously injected into the rear flank of nude mice and monitored for their growth. For FAM83A shRNA production, a double-stranded DNA oligonucleotide was generated from the following sequences: sense, 5′-[…]-3′ (SEQ ID NO:7); antisense, 5′-[…]-3′ (SEQ ID NO:8) (target sequence underlined; BamH1/EcoR1 cohesive ends italicized). Both oligonucleotides were annealed and ligated into BamH1/EcoR1 site of pGreen puro lentival vector (System Biosciences).

[8] = test system: FAM83A; test: FAM83A protein knock-down by siRNA in T4-2 cells (western blot and immunofluorescence with FAM83A polyclonal antibody); format: cell-based, human; conditions: T4-2 lysates, western blot vs scrambled control (FIG. 14B)
Description: The specificity of FAM83A polyclonal antibody was tested by performing western blot and immunofluorescence analysis in two different sets of FAM83A-specific siRNA-treated T4-2 cells (siRNA#1, SEQ ID NO:1; and siRNA#2, SEQ ID NO:2) using the FAM83A polyclonal antibody.

[9] = lapatinib 30 mg/kg, hematoxylin and eosin (FIG. 18B)
[10] = lapatinib oral gavage twice daily for 3 weeks, 30 mg/kg (FIG. 17D)

## COc1cccc(-c2cc(=O)c3ccccc3o2)c1N [PD98059]
[1]; 20 μM PD98059
  induction of phenotypically normal acinus-like structures: phenotypically normal acinus-like structures were induced
[2]
  phenotypic reversion of full-length FAM83A overexpressing T4-2 cells: undergo phenotypic reversion

## COc1cc2ncnc(Nc3ccc(F)c(Cl)c3)c2cc1OCCCN1CCOCC1 [gefitinib]
[1]
  phenotypic reversion of control T4-2 cells: reverted

## CS(=O)(=O)CCNCc1ccc(-c2ccc3ncnc(Nc4ccc(OCc5cccc(F)c5)c(Cl)c4)c3c2)o1 [lapatinib]
[1]
  phenotypic reversion of control T4-2 cells: reverted
[3]; [9]
  pathological examination of sectioned FAM83A-overexpressing tumors: had been invading the stromal regions
[3]; lapatinib oral gavage twice daily for 3 weeks (FIG. 17D)
  size of lapatinib-treated FAM83A-overexpressing tumors relative to controls: 5 times
[3]; [10]
  growth of FAM83A-overexpressing tumors: not affected
[4]; 30 mg/kg or 100 mg/kg oral gavage twice daily (FIG. 18A)
  dose dependence of tumor inhibitory action on control cells: independent of the dose above 30 mg/kg
[4]; [9]
  pathological examination of sectioned control tumors: well-circumscribed and distinctly separated from the stromal regions
[4]; [10]
  growth of control tumors: significantly inhibited
[2]; FIG. 17C
  structure of FAM83A-overexpressing T4-2 cells in presence of EGFR inhibitor: maintained disorganized structures

## AG1478
[1]; 3D lrECM, 10 days, different concentrations (FIG. 4A)
  morphology of T4-2 cells treated with AG1478: form growth arrested acinus-like structures
[1]; 100 nM AG1478
  induction of phenotypically normal acinus-like structures: phenotypically normal acinus-like structures were induced
[5]
  EGFR protein level: decreased levels
  phosphorylated EGFR level: lower levels
  β1-integrin protein level: decreased levels
[2]
  phenotypic reversion of full-length FAM83A overexpressing T4-2 cells: not
[6]; AG1478 4 days, RT-PCR
  FAM83A mRNA expression: decreased
[6]; AG1478, western blot
  FAM83A protein expression: decreased

B1: FAM83A shRNA: shRNA from double-stranded DNA oligonucleotide (SEQ ID NO:7 and 8) ligated into pGreen puro lentiviral vector (nucleic acid)
sense: GATCCGTGTGGAAGGAGAGATATACTTCCTGTCAGATATATCTCTCCTTCCACACTTTTTG
antisense: AATTCAAAAAGTGTGGAAGGAGAGATATATCTGACAGGAAGTATATCTCTCCTTCCACACG
[7]
  tumor growth relative to control cells: ¼

B2: siRNA#1: one of two different sets of FAM83A-specific siRNA; printed as SEQ ID NO:1 (nucleic acid)
chain: ATGAGCCGGTCAAGGCACCTGGGCAAAATCCGGAAGCGTCTGGAAGATGTCAAGAGCCAGTGGGTCCGGCCAGCCAGGGCTGACTTTAGTGACAACGAGAGTGCCCGGCTGGCCACGGACGCCCTCTTGGATGGGGGTTCTGAAGCCTACTGGCGGGTGCTCAGCCAGGAAGGCGAGGTGGACTTCTTGTCCTCGGTGGAGGCCCAGTACATCCAGGCCCAGGCCAGGGAGCCCCCGTGTCCCCCAGACACCCTGGGAGGGGCGGAAGCAGGCCCTAAGGGACTGGACTCCAGCTCCCTACAGTCCGGCACCTACTTCCCTGTGGCCTCAGAGGGCAGCGAGCCGGCCCTACTGCACAGCTGGGCCTCAGCTGAGAAGCCCTACCTGAAGGAAAAATCCAGCGCCACTGTGTACTTCCAGACCGTCAAGCACAACAACATCAGAGACCTCGTCCGCCGCTGCATCACCCGGACTAGCCAGGTCCTGGTCATCCTGATGGATGTGTTCACGGATGTGGAGATCTTCTGTGACATTCTAGAGGCAGCCAACAAGCGTGGGGTGTTCGTTTGTGTGCTCCTGGACCAGGGAGGTGTGAAGCTCTTCCAGGAGATGTGTGACAAAGTCCAGATCTCTGACAGTCACCTCAAGAACATTTCCATCCGGAGTGTGGAAGGAGAGATATACTGTGCCAAGTCAGGCAGGAAATTCGCTGGCCAAATCCGGGAGAAGTTCATCATCTCGGACTGGAGATTTGTCCTGTCTGGATCTTACAGCTTCACCTGGCTCTGCGGACACGTGCACCGGAACATCCTCTCCAAGTTCACAGGCCAGGCGGTGGAGCTGTTTGACGAGGAGTTCCGCCACCTCTACGCCTCCTCCAAGCCTGTGATGGGCCTGAAGTCCCCGCGGCTGGTCGCCCCCGTCCCGCCCGGAGCAGCCCCGGCCAATGGCCGCCTTAGCAGCAGCAGTGGCTCCGCCAGTGACCGCACGTCCTCCAACCCCTTCAGCGGCCGCTCGGCAGGCAGCCACCCCGGTACCCGAAGTGTGTCCGCGTCTTCAGGGCCCTGTAGCCCCGCGGCCCCACACCCGCCTCCACCGCCCCGGTTCCAGCCCCACCAAGGCCCTTGGGGAGCCCCGAGTCCCCAGGCCCACCTCTCCCCGCGGCCCCACGACGGCCCGCCCGCCGCTGTCTACAGCAACCTGGGGGCCTACAGGCCCACGCGGCTGCAGCTGGAGCAGCTGGGCCTGGTGCCGAGGCTGACTCCAACCTGGAGGCCCTTCCTGCAGGCCTCCCCTCACTTCTGA
modifications: Homo sapien
[8]
  23 kDa FAM83A band: reduced
  99 kDa FAM83A band: reduced
